ChEMBL document CHEMBL5543111, “Uncovering PROTAC Sensitivity and Efficacy by Multidimensional Proteome Profiling: A Case for STAT3” (J Med Chem, 2024)
The source made the active and inactive calls. The calls are words filed in the database; no cut-off is given here.

Experiments:
[1] = target: T1, Protein cereblon/Signal transducer and activator of transcription 3 (Homo sapiens) (UniProt P40763+Q96SW2); assay: PROTAC activity at CRBN/STAT3 in human DB cells assessed as induction of STAT3 degradation at 5 to 10 uM measured after 24 hrs; assay type: cell-based; settings: dose 5-10 µM
Pfeiffer [2] = assay: Cytotoxicity against human Pfeiffer cells harbouring STAT3 assessed as reduction in cell viability at 2 uM measured after 3 days by CCK- method; assay type: functional, cell-based; settings: time 3.0 day
[3] = target: T1, Protein cereblon/Signal transducer and activator of transcription 3 (Homo sapiens); assay: PROTAC activity at CRBN/STAT3 in human MOLM16 cells assessed as induction of STAT3 degradation at 5 uM measured after 3 hrs; assay type: cell-based
[4] = target: T2, Protein cereblon/Signal transducer and activator of transcription 5A (Homo sapiens) (UniProt P42229+Q96SW2); assay: PROTAC activity at CRBN/STAT5A in human KARPAS-299 cells assessed as induction of STAT5A degradation at 5 to 10 uM measured after 24 hrs; assay type: cell-based; settings: dose 5-10 µM
Pfeiffer [5] = assay: Cytotoxicity against human Pfeiffer cells harbouring STAT1 assessed as reduction in cell viability measured after 3 days by CCK- method; assay type: functional, cell-based; settings: time 3.0 day
SUP-M2 [6] = assay: Downregulation of NOP53 expression in human SUPM2 at 5 to 10 uM measured after 24 hrs; assay type: functional, cell-based; settings: dose 5-10 µM
[7] = target: T3, Protein cereblon/Signal transducer and activator of transcription 2 (Homo sapiens) (UniProt Q96SW2+P52630); assay: PROTAC activity at CRBN/STAT2 in human KARPAS-299 cells assessed as induction of STAT2 degradation at 5 to 10 uM measured after 24 hrs; assay type: cell-based; settings: dose 5-10 µM
[8] = target: T4, Protein cereblon/Signal transducer and activator of transcription 1-alpha/beta (Homo sapiens) (UniProt P42224+Q96SW2); assay: PROTAC activity at CRBN/STAT1 in human DB cells assessed as induction of STAT1 degradation at 5 to 10 uM measured after 24 hrs; assay type: cell-based; settings: dose 5-10 µM
Pfeiffer [9] = assay: Antitumor activity against human Pfeiffer cells xenografted in CB-17/SCID mouse model bearing late stage of TPPRC assessed as inhibition of tumor growth at 25 to 50 mg/kg, iv measured upto 21 days; assay type: functional, organism-based; settings: dose 25-50 mg/kg, time <= 21.0 day
[10] = target: T1, Protein cereblon/Signal transducer and activator of transcription 3 (Homo sapiens); assay: PROTAC activity at CRBN/STAT3 in human DB cells assessed as induction of STAT3 degradation at 5 uM measured after 3 hrs; assay type: cell-based
[11] = target: T1, Protein cereblon/Signal transducer and activator of transcription 3 (Homo sapiens); assay: PROTAC activity at CRBN/STAT3 in human KARPAS-299 cells assessed as fold change in STAT3 degradation at 5 uM measured after 24 hrs; assay type: cell-based
[12] = target: T1, Protein cereblon/Signal transducer and activator of transcription 3 (Homo sapiens); assay: PROTAC activity at CRBN/STAT3 in human KARPAS-299 cells assessed as induction of STAT3 degradation at 5 to 10 uM measured after 24 hrs; assay type: cell-based; settings: dose 5-10 µM
Mus musculus [13] = assay: In vivo PROTAC activity at CRBN/STAT1 in human Pfeiffer cells xenografted in CB-17/SCID mouse model bearing middle stage of TPPRC assessed as upregulation of STAT1 by measuring fold change; assay type: functional
[14] = target: T1, Protein cereblon/Signal transducer and activator of transcription 3 (Homo sapiens); assay: PROTAC activity at CRBN/STAT3 in human SU-DHL-4 cells assessed as induction of STAT3 degradation at 5 uM measured after 3 hrs; assay type: cell-based
[15] = target: T5, Protein cereblon/Signal transducer and activator of transcription 6 (Homo sapiens) (UniProt P42226+Q96SW2); assay: PROTAC activity at CRBN/STAT6 in human DB cells assessed as induction of STAT6 degradation at 5 to 10 uM measured after 24 hrs; assay type: cell-based; settings: dose 5-10 µM
[16] = target: T1, Protein cereblon/Signal transducer and activator of transcription 3 (Homo sapiens); assay: PROTAC activity at CRBN/STAT3 in human KARPAS-299 cells assessed as induction of STAT3 degradation at 5 uM measured after 3 hrs; assay type: cell-based
[17] = target: T1, Protein cereblon/Signal transducer and activator of transcription 3 (Homo sapiens); assay: PROTAC activity at CRBN/STAT3 in human SU-DHL-4 cells assessed as fold change in STAT3 degradation at 5 uM measured after 24 hrs; assay type: cell-based
DB [18] = assay: Downregulation of NOP53 expression in human DB at 5 to 10 uM measured after 24 hrs; assay type: functional, cell-based; settings: dose 5-10 µM
[19] = target: T1, Protein cereblon/Signal transducer and activator of transcription 3 (Homo sapiens); assay: PROTAC activity at CRBN/STAT3 in human MOLM16 cells assessed as fold change in STAT3 degradation at 5 uM measured after 24 hrs; assay type: cell-based
SUD4 [20] = assay: Downregulation of NOP53 expression in human SU-DHL-4 at 5 to 10 uM measured after 24 hrs; assay type: functional, cell-based; settings: dose 5-10 µM
Pfeiffer [21] = assay: Downregulation of STAT3 expression in patient derived STAT3 high expressing human Pfeiffer cell organoids at 2 uM by Western blot analysis; assay type: functional, cell-based
Mus musculus [22] = assay: In vivo PROTAC activity at CRBN/STAT1 in human Pfeiffer cells xenografted in CB-17/SCID mouse model bearing last stage of TPPRC assessed as upregulation of STAT1 by measuring fold change; assay type: functional
Pfeiffer [23] = assay: Downregulation of PCLAF expression in human Pfeiffer at 5 to 10 uM measured after 24 hrs; assay type: functional, cell-based; settings: dose 5-10 µM
SUD4 [24] = assay: Downregulation of PCLAF expression in human SU-DHL-4 at 5 to 10 uM measured after 24 hrs; assay type: functional, cell-based; settings: dose 5-10 µM
[25] = target: T2, Protein cereblon/Signal transducer and activator of transcription 5A (Homo sapiens); assay: PROTAC activity at CRBN/STAT5A in human DB cells assessed as induction of STAT5A degradation at 5 to 10 uM measured after 24 hrs; assay type: cell-based; settings: dose 5-10 µM
[26] = target: T6, Protein cereblon/Signal transducer and activator of transcription 5B (Homo sapiens) (UniProt P51692+Q96SW2); assay: PROTAC activity at CRBN/STAT5B in human KARPAS-299 cells assessed as induction of STAT5B degradation at 5 to 10 uM measured after 24 hrs; assay type: cell-based; settings: dose 5-10 µM
[27] = target: T1, Protein cereblon/Signal transducer and activator of transcription 3 (Homo sapiens); assay: PROTAC activity at CRBN/STAT3 in human Pfeiffer cells assessed as fold change in STAT3 degradation at 5 uM measured after 24 hrs; assay type: cell-based
[28] = target: T1, Protein cereblon/Signal transducer and activator of transcription 3 (Homo sapiens); assay: PROTAC activity at CRBN/STAT3 in human SUPM2 cells assessed as induction of STAT3 degradation at 5 uM measured after 3 hrs; assay type: cell-based
KARPAS-299 [29] = assay: Downregulation of PCLAF expression in human KARPAS-299 at 5 to 10 uM measured after 24 hrs; assay type: functional, cell-based; settings: dose 5-10 µM
[30] = target: T5, Protein cereblon/Signal transducer and activator of transcription 6 (Homo sapiens); assay: PROTAC activity at CRBN/STAT6 in human KARPAS-299 cells assessed as induction of STAT6 degradation at 5 to 10 uM measured after 24 hrs; assay type: cell-based; settings: dose 5-10 µM
[31] = Toxicity in CB-17/SCID mouse bearing late stage of TPPRC assessed as effect on body weight at 25 to 50 mg/kg, iv measured after 21 days; assay type: organism-based; settings: in vivo, 504 h, dose 25-50 mg/kg, time 21 day
[32] = target: T6, Protein cereblon/Signal transducer and activator of transcription 5B (Homo sapiens); assay: PROTAC activity at CRBN/STAT5B in human DB cells assessed as induction of STAT5B degradation at 5 to 10 uM measured after 24 hrs; assay type: cell-based; settings: dose 5-10 µM
MOLM-16 [33] = assay: Downregulation of NOP53 expression in human MOLM16 at 5 to 10 uM measured after 24 hrs; assay type: functional, cell-based; settings: dose 5-10 µM
Pfeiffer [34] = assay: Downregulation of STAT1 expression in patient derived STAT1 high expressing human Pfeiffer cell organoids at 2 uM by Western blot analysis; assay type: functional, cell-based
[35] = target: T1, Protein cereblon/Signal transducer and activator of transcription 3 (Homo sapiens); assay: PROTAC activity at CRBN/STAT3 in human SUPM2 cells assessed as fold change in STAT3 degradation at 5 uM measured after 24 hrs; assay type: cell-based
[36] = target: T1, Protein cereblon/Signal transducer and activator of transcription 3 (Homo sapiens); assay: PROTAC activity at CRBN/STAT3 in human Pfeiffer cells assessed as induction of STAT3 degradation at 5 uM measured after 3 hrs; assay type: cell-based
MOLM-16 [37] = assay: Downregulation of PCLAF expression in human MOLM16 at 5 to 10 uM measured after 24 hrs; assay type: functional, cell-based; settings: dose 5-10 µM
[38] = target: T3, Protein cereblon/Signal transducer and activator of transcription 2 (Homo sapiens); assay: PROTAC activity at CRBN/STAT2 in human DB cells assessed as induction of STAT2 degradation at 5 to 10 uM measured after 24 hrs; assay type: cell-based; settings: dose 5-10 µM
[39] = target: T1, Protein cereblon/Signal transducer and activator of transcription 3 (Homo sapiens); assay: PROTAC activity at CRBN/STAT3 in human DB cells assessed as fold change in STAT3 degradation at 5 uM measured after 24 hrs; assay type: cell-based
Pfeiffer [40] = assay: Downregulation of NOP53 expression in human Pfeiffer at 5 to 10 uM measured after 24 hrs; assay type: functional, cell-based; settings: dose 5-10 µM
KARPAS-299 [41] = assay: Downregulation of NOP53 expression in human KARPAS-299 at 5 to 10 uM measured after 24 hrs; assay type: functional, cell-based; settings: dose 5-10 µM
SUP-M2 [42] = assay: Downregulation of PCLAF expression in human SUPM2 at 5 to 10 uM measured after 24 hrs; assay type: functional, cell-based; settings: dose 5-10 µM
Mus musculus [43] = assay: In vivo PROTAC activity at human Pfeiffer cells xenografted in CB-17/SCID mouse model bearing late stage of TPPRC assessed as degradation of STAT3 at administered as IV dose; assay type: functional, organism-based; settings: dose 25-50 mg/kg
Pfeiffer [44] = assay: Downregulation of STAT3 expression in patient derived STAT3 low expressing human Pfeiffer cell organoids at 2 uM by Western blot analysis; assay type: functional, cell-based
DB [45] = assay: Downregulation of PCLAF expression in human DB at 5 to 10 uM measured after 24 hrs; assay type: functional, cell-based; settings: dose 5-10 µM
[46] = target: T4, Protein cereblon/Signal transducer and activator of transcription 1-alpha/beta (Homo sapiens); assay: PROTAC activity at CRBN/STAT1 in human KARPAS-299 cells assessed as induction of STAT1 degradation at 5 to 10 uM measured after 24 hrs; assay type: cell-based; settings: dose 5-10 µM

T1 sequence (P40763 2-770 limits assumed): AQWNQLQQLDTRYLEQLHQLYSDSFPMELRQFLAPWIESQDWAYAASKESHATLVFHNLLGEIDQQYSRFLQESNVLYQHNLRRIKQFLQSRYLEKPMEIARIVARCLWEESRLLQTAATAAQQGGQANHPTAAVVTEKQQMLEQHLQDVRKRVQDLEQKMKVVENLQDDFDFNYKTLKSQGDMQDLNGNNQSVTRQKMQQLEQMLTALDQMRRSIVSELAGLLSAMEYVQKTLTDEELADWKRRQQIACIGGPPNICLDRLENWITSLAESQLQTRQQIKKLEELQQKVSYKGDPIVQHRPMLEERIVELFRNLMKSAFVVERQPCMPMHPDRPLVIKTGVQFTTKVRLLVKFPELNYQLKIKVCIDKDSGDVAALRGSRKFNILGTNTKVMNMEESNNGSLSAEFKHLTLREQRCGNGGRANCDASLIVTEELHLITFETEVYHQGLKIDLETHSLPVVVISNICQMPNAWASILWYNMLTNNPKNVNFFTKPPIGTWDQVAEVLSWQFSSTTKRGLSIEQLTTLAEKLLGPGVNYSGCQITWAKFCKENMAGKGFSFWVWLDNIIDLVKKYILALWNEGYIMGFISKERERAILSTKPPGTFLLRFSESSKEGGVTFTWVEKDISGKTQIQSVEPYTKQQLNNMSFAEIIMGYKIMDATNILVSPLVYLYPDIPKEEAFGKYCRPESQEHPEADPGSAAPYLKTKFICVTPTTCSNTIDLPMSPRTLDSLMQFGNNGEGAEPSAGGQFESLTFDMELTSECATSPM
T1 sequence (Q96SW2 whole entry partner): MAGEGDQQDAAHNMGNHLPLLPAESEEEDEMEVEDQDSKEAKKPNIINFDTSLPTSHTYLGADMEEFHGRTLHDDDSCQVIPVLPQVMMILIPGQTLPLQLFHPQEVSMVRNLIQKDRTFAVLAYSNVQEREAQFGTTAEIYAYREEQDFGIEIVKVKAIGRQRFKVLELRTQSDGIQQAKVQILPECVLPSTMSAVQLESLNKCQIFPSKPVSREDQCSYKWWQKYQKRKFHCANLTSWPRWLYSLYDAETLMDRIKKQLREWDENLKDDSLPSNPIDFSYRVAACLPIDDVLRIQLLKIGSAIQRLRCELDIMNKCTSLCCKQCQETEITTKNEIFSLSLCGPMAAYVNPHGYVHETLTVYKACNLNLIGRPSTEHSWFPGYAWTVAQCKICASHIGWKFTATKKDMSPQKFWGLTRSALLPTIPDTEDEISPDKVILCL
T3 sequence (P52630 whole entry, looked up): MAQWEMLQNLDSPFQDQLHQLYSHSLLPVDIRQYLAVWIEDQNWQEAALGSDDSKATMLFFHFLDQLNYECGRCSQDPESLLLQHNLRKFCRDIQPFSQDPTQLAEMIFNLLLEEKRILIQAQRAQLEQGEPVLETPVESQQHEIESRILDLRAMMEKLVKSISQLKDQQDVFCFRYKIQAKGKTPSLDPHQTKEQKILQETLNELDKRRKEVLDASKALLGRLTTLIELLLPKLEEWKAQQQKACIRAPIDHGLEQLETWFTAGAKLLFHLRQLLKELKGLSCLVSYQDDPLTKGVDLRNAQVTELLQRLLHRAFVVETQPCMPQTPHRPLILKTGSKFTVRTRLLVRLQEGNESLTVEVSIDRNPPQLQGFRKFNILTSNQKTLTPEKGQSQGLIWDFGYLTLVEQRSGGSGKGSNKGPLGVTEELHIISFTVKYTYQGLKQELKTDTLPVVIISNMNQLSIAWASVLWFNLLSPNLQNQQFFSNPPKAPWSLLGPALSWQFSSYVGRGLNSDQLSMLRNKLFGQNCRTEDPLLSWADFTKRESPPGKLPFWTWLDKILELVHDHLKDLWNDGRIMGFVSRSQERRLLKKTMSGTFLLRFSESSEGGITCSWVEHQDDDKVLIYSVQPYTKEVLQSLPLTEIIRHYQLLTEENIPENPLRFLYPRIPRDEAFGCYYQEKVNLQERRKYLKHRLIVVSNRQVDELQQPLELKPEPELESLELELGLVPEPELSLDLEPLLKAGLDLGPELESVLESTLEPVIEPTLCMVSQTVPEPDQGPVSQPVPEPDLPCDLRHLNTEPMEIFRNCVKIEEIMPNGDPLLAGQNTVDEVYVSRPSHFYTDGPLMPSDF
T3 sequence (Q96SW2 whole entry, looked up): as the sequence (Q96SW2 whole entry partner) above
T5 sequence (P42226 2-847 limits assumed): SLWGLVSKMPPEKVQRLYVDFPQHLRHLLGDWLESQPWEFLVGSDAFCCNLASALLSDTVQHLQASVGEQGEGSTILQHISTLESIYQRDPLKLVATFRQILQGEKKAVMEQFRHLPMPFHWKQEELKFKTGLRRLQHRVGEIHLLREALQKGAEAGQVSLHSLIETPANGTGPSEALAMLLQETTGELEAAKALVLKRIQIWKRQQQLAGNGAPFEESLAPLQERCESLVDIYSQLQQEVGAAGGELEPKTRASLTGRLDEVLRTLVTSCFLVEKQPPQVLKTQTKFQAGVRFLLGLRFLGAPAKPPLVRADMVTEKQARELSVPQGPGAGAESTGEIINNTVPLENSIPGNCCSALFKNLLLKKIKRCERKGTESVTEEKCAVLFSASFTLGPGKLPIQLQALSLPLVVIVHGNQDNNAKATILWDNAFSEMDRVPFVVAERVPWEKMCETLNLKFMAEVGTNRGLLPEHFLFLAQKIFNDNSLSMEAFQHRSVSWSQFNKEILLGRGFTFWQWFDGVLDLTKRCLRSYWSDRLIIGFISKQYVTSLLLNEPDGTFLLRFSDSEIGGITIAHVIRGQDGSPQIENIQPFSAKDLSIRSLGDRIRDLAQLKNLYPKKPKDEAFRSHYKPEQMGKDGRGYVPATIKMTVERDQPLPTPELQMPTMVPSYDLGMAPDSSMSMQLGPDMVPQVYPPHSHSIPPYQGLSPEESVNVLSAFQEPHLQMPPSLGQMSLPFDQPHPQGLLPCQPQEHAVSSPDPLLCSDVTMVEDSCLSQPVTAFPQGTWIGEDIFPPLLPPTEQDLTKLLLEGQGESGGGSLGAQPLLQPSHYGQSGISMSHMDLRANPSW
T5 sequence (Q96SW2 whole entry partner): as the sequence (Q96SW2 whole entry partner) above
T2 sequence (P42229 whole entry, looked up): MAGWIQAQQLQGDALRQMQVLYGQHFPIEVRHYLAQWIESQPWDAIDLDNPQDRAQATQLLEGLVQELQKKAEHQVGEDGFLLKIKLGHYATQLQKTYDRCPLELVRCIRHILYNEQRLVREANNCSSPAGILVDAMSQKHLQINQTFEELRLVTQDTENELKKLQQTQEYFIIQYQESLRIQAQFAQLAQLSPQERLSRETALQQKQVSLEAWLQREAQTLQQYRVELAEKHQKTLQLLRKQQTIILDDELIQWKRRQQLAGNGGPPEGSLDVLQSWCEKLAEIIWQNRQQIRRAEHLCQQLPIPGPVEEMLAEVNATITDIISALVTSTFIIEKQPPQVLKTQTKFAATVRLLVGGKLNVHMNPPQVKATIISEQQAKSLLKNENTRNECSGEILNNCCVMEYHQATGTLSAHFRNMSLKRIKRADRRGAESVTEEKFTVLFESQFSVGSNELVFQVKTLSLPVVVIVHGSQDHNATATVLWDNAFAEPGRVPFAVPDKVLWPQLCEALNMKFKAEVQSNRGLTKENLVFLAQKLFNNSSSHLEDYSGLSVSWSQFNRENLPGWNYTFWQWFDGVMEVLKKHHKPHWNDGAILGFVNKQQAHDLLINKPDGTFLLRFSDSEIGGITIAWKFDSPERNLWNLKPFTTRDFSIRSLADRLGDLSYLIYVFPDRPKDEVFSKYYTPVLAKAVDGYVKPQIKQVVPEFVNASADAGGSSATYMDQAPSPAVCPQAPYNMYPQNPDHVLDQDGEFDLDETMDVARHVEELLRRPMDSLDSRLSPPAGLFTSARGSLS
T2 sequence (Q96SW2 whole entry, looked up): as the sequence (Q96SW2 whole entry partner) above
T6 sequence (P51692 whole entry, looked up): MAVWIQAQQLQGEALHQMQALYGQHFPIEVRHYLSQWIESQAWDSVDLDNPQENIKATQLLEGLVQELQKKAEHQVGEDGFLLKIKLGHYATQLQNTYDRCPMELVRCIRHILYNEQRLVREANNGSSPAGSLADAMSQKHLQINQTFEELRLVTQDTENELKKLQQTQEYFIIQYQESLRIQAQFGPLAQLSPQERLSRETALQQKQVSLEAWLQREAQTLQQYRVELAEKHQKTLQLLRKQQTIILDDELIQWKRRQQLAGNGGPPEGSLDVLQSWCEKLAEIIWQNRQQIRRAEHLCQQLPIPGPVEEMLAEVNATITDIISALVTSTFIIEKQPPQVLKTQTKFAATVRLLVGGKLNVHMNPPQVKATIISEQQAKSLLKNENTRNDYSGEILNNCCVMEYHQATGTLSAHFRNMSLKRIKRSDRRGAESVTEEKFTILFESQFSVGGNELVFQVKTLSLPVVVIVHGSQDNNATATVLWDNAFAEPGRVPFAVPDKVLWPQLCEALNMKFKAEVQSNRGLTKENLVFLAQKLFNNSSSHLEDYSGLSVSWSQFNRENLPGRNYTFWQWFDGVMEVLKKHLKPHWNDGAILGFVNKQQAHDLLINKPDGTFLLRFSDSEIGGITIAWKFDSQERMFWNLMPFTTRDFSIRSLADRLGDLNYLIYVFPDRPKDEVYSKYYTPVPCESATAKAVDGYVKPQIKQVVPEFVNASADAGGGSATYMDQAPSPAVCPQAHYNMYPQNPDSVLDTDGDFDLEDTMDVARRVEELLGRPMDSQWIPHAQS
T6 sequence (Q96SW2 whole entry, looked up): as the sequence (Q96SW2 whole entry partner) above

Structure (SMILES): NC(=O)CC[C@H](NC(=O)[C@@H]1CC[C@@H]2CCN(C(=O)CCCCCC#Cc3cccc4c3CN(C3CCC(=O)NC3=O)C4=O)C[C@H](NC(=O)c3cc4cc(C(F)(F)P(=O)(O)O)ccc4[nH]3)C(=O)N21)C(=O)NC(c1ccccc1)c1ccccc1 (stereo partly specified)
- Activity [1]: Active
- Activity (Pfeiffer [2]): Active
- Activity [3]: Active
- Activity [4]: inactive
- Activity (Pfeiffer [5]): Active
- Activity (SUP-M2 [6]): Active
- Activity [7]: inactive
- Activity [8]: inactive
- Activity (Pfeiffer [9]): Active
- Activity [10]: Active
- fold change (FC) [11]: 0.66
- Activity [12]: Active
- fold change (FC) (Mus musculus [13]): >3.5
- Activity [14]: Active
- Activity [15]: inactive
- Activity [16]: Active
- fold change (FC) [17]: 0.66
- Activity (DB [18]): inactive
- fold change (FC) [19]: 0.66
- Activity (SUD4 [20]): inactive
- Activity (Pfeiffer [21]): Active
- fold change (FC) (Mus musculus [22]): >3.5
- Activity (Pfeiffer [23]): inactive
- Activity (SUD4 [24]): inactive
- Activity [25]: inactive
- Activity [26]: inactive
- fold change (FC) [27]: 0.66
- Activity [28]: Active
- Activity (KARPAS-299 [29]): Active
- Activity [30]: inactive
- Activity [31]: Non-Toxic
- Activity [32]: inactive
- Activity (MOLM-16 [33]): Active
- Activity (Pfeiffer [34]): Active
- fold change (FC) [35]: 0.66
- Activity [36]: Active
- Activity (MOLM-16 [37]): Active
- Activity [38]: inactive
- fold change (FC) [39]: 0.66
- Activity (Pfeiffer [40]): inactive
- Activity (KARPAS-299 [41]): Active
- Activity (SUP-M2 [42]): Active
- Activity (Mus musculus [43]): Dose-Dependent Effect
- Activity (Pfeiffer [44]): Active
- Activity (DB [45]): inactive
- Activity [46]: inactive
